Results reported in paper PMC10748408 (Frontiers in Oncology, 2023).
pIC50: −log10 of the molar value. Marks after values point to notes of the source that are not given here.

Legend:
[1] = system: tumor-bearing mice; assay: Hematological parameters of tumor-bearing mice treated with ART; type: in vivo, BALB/c mice; details: 7 days
[2] = system: 4T1 cells; assay: Cell viability assay (MTT); type: cell-based, murine; details: Mus musculus, 24 hours
Procedure: Human triple negative breast cancer cells MDA-MB-231 and murine mammary cancer cells 4T1 were obtained from National Centre for Cell Sciences, Pune, India. Cells were maintained in complete Dulbecco’s Modified Eagle Medium (DMEM) supplemented with 10% FBS and 1% penicillin/streptomycin, and incubated at 37°C in 5% CO2 - 95% humidified atmosphere. Cells in log phase of growth was used for all subsequent experiments ([21]). 1 x 10^5 viable cells were seeded in a 96-well plate. […] Following treatment, wells were washed to remove the media and 100 µl of PBS was added to each well. Finally, 10 µl of MTT solution (5 mg/mL in PBS) was added and incubated at 37°C for 3 hours. The purple crystals formed were dissolved in 150 µl of DMSO. Absorbance was measured at 570 nm in a multi-plate reader Varioskan™ Lux (Thermo Fisher Scientific, USA; [21]).

[3] = system: tumor cells; assay: Cell cycle assay (PI, flow cytometry) of cells isolated from tumors; type: in vivo, BALB/c mice; details: 25 and 50 mg/kg bodyweight ART vs untreated tumor-bearing mice, p<0.05
Procedure: Cells (1 x 10^6) were isolated from tissues by collagenase-hyaluronidase digestion and fixed in ice-cold ethanol at -20°C. Samples were washed and resuspended in PBS containing 40 µg/mL RNase A for 1 hr. The cells were then stained with 30 µg/mL propidium iodide in the dark for 30 minutes and analyzed by flow cytometry using the BD Verse (BD Biosciences, USA). Data were analyzed using the BD FACSuite™ software ([35]).

[4] = system: beclin1 and LC3α/β; assay: Western blot of autophagic markers in tumor tissues; type: in vivo, BALB/c mice; details: ART dose-dependent
Procedure: (§1) Normal and tumor tissues were homogenized in ice-cold radioimmunoprecipitation assay (RIPA) buffer containing a protease inhibitor cocktail. Proteins were resolved by 10% sodium dodecyl sulphate-polyacrylamide gel electrophoresis (SDS-PAGE), transferred onto polyvinylidene difluoride (PVDF) membranes, blocked with 5% fat-free milk and incubated with primary antibodies (1:1000 dilution) overnight at 4°C. Blots were subsequently washed and incubated with respective secondary antibodies, tagged with horseradish peroxidase. Protein expression was detected using enhanced chemiluminescence (ECL) kit ([37]). Blots were analyzed using the Gel Doc XR and band intensity quantified using ImageJ software (NIH, USA).

[5] = system: CLEC12A; assay: Western blot of CLEC12A in tumor tissues; type: in vivo, BALB/c mice; details: ART treatment, dose-dependent
Procedure: as §1

[6] = system: tumor-bearing mice; assay: Mean survival time of tumor-bearing mice; type: in vivo, BALB/c mice; details: for MST: tumor-bearing mice, observed 90 days
Procedure: MST was calculated using the equation: MST (days) = (day of first mortality + day of last mortality)/2. The increase in survivability between treated and untreated groups was estimated by ILS% = [(MST of treated set/MST of untreated set) -1] X 100 ([26]).

C[C@@H]1CC[C@H]2[C@@H](C)C(=O)O[C@@H]3O[C@@]4(C)CC[C@@H]1[C@]32OO4 [ART, Artemisinin]
Differential Count % B (Basophils) ([1]; ART 6.25 mg/kg body wt i.p.): 0%
Differential Count % E (Eosinophils) ([1]; ART 6.25 mg/kg body wt i.p.): 0%
Differential Count % L (Lymphocyte) ([1]; ART 6.25 mg/kg body wt i.p.): 36± 2.5%
Differential Count % M (Monocytes) ([1]; ART 6.25 mg/kg body wt i.p.): 1%
Differential Count % N (Neutrophils) ([1]; ART 6.25 mg/kg body wt i.p.): 63± 1.4%
Hb ([1]; ART 6.25 mg/kg body wt i.p.): 10.1 ± 0.42 g/dL
Total RBC ([1]; ART 6.25 mg/kg body wt i.p.): 5.1± 0.1 10^6 cells/mm^3
Total WBC ([1]; ART 6.25 mg/kg body wt i.p.): 16.8± 0.8** 10^3 cells/mm^3
Differential Count % B (Basophils) ([1]; ART 12.5 mg/kg body wt i.p.): 0%
Differential Count % E (Eosinophils) ([1]; ART 12.5 mg/kg body wt i.p.): 0%
Differential Count % L (Lymphocyte) ([1]; ART 12.5 mg/kg body wt i.p.): 51± 2.6 %
Differential Count % M (Monocytes) ([1]; ART 12.5 mg/kg body wt i.p.): 1%
Differential Count % N (Neutrophils) ([1]; ART 12.5 mg/kg body wt i.p.): 48± 2.6 %
Hb ([1]; ART 12.5 mg/kg body wt i.p.): 13.7 ± 0.33 g/dL
Total RBC ([1]; ART 12.5 mg/kg body wt i.p.): 6.3± 0.29^* 10^6 cells/mm^3
Total WBC ([1]; ART 12.5 mg/kg body wt i.p.): 10.2± 1.16^*** 10^3 cells/mm^3
Differential Count % B (Basophils) ([1]; ART 25 mg/kg body wt i.p.): 0%
Differential Count % E (Eosinophils) ([1]; ART 25 mg/kg body wt i.p.): 0%
Differential Count % L (Lymphocyte) ([1]; ART 25 mg/kg body wt i.p.): 53± 2.1 %
Differential Count % M (Monocytes) ([1]; ART 25 mg/kg body wt i.p.): 1%
Differential Count % N (Neutrophils) ([1]; ART 25 mg/kg body wt i.p.): 46± 1.3 %
Hb ([1]; ART 25 mg/kg body wt i.p.): 14.2 ± 0.21 g/dL
Total RBC ([1]; ART 25 mg/kg body wt i.p.): 6.7± 0.14^* 10^6 cells/mm^3
Total WBC ([1]; ART 25 mg/kg body wt i.p.): 9.3± 1.8^*** 10^3 cells/mm^3
Differential Count % B (Basophils) ([1]; ART 50 mg/kg body wt i.p.): 0%
Differential Count % E (Eosinophils) ([1]; ART 50 mg/kg body wt i.p.): 0%
Differential Count % L (Lymphocyte) ([1]; ART 50 mg/kg body wt i.p.): 57± 1.2 %
Differential Count % M (Monocytes) ([1]; ART 50 mg/kg body wt i.p.): 2%
Differential Count % N (Neutrophils) ([1]; ART 50 mg/kg body wt i.p.): 41± 1.5 %
Hb ([1]; ART 50 mg/kg body wt i.p.): 14.6 ± 0.61 g/dL
Total RBC ([1]; ART 50 mg/kg body wt i.p.): 7.6± 0.67^* 10^6 cells/mm^3
Total WBC ([1]; ART 50 mg/kg body wt i.p.): 9.1± 1.23^*** 10^3 cells/mm^3
pIC50 [2]: 6.00
percentage of G2/M cell count [3]: significant increase
expression of autophagic markers, beclin1 and LC3α/β [4]: decreased expression
expression of CLEC12A [5]: reduced
mean survival of tumor-bearing mice treated with ART ([6]; Kaplan-Meier plot, untreated succumbed within 50 days): ~90 days
MST ([6]; ART 6.25 mg/kg body wt): 48.2 ± 17.3 days
MST ([6]; ART 12.5 mg/kg body wt): 61.3 ± 8.9 days
MST ([6]; ART 25 mg/kg body wt): 75.4 ± 7.1 days
MST ([6]; ART 50 mg/kg body wt): 88.3 ± 8.9 days
